Where a name gives a salt, the structure may show the parent alone.

Compound `CCc1nnsc1C(=O)O` [compound 178, t-butylammonium 4-ethyl-1,2,3-thiadiazole-5-carboxylate] gave a melting point of 105 to 107 °C.
Regarding `CCc1nnsc1C(=O)O` (as salt: sodium) [compound 176, sodium 4-ethyl-1,2,3-thiadiazole-5-carboxylate], the melting point is 250 °C (dec.).

The values are drawn from US6521649B1 (priority 1995, dated 2003).
